The values that follow are results of earlier work, collected in patent publication US6344218B1, “Skin deodorizing and santizing compositions” (The Procter & Gamble Company, priority 1998, dated 2002).

SMILES strings stand for the structures. Counter-ions that a name gives are not always drawn.

Take `OCCOc1ccccc1` [2-phenoxyethanol]: the solubility in water result is “about 2.67%”.
For the molecule `OCCc1ccccc1` [2-phenylethanol], the solubility in water result is “about 2%”.
Take `O=[N+]([O-])C1(Br)COCOC1` [Bronidox L, 5-bromo-5-nitro-1,3-dioxane]: the solubility in water entry was “about 0.46%”.
`O=[N+]([O-])C(Br)(CO)CO` [Bronopol, 2-bromo-2-nitropropane-1,3-diol]: the solubility in water entry is on record as “about 25%”.
Regarding `CC1(C)C(=O)N(CO)C(=O)N1CO` [DMDM hydantoin, 1,3-bis(hydroxymethyl)-5,5-dimethyl-2,4-imidazolidinedione], the solubility in water result is on record as “more than 50%”.
With `ClC=CC[N+]12CN3CN(CN(C3)C1)C2.[Cl-]` [Dowicil 200, 1-(3-Chlorallyl)-3,5,7-triaza-1-azoniaadamantane chloride], the “solubility in water” value is “freely soluble in water”.
As for `OCc1ccccc1` [benzyl alcohol], the solubility in water result is on record as “about 4%”.
`CC(C)(O)C(Cl)(Cl)Cl` [chlorobutanol, 1,1,1-Trichloro-2-methylpropan-2-ol]: the solubility in water entry was “about 0.8%”.
As for `[H]/N=C(\N/C(=N/[H])NCCCCCCNC(=N)NC(=N)Nc1ccc(Cl)cc1)Nc1ccc(Cl)cc1` [diacetate salt, 1,1′-hexamethylene bis(5-(p-chlorophenyl)biguanide), reference compound], the solubility in water result is on record as “about 1.8%”.
With `[H]/N=C(\N/C(=N/[H])NCCCCCCNC(=N)NC(=N)Nc1ccc(Cl)cc1)Nc1ccc(Cl)cc1` [digluconate salt, 1,1′-hexamethylene bis(5-(p-chlorophenyl)biguanide), reference compound], the solubility in water result is on record as “about 70%”.
On to `[Na+].[O-][n+]1ccccc1[S-]` [sodium pyrithione], for which the solubility in water result is reported as “about 50%”.
